# Measured values as given in US7592326B2, “Method for stimulating the immune, inflammatory or neuroprotective response” (priority 2004, dated 2009).
# How the values were obtained:
# [1] = test system: autologous or allogeneic PBMC; assay: Mixed leukocyte reaction with irradiated DCs ([3H]thymidine incorporation); assay type: cell-based, human; details: 100 μM c-di-GMP-treated immature DCs
# Procedure: DCs were stimulated for 24 h with c-di-GMP or LPS and were then extensively washed and suspended in RPMI 1640 supplemented with 10% human serum, L-glutamine, and penicillin/streptomicin, irradiated (3,000 rad from a ^137Cs source) and added in graded doses to 1×10^5 responder T cells in 96 flat-bottom microplates. Responder cells were autologous or allogeneic PBMC. After 5 days, cultures were pulsed for 18 h with 0.5 µCi/well of [^3H]thymidine. Cells were then harvested onto glass fiber filters, and [^3H]thymidine incorporation was measured by liquid scintillation spectroscopy.
# Murine splenic DCs = assay: Activation of murine splenic DCs; details: 200 uM, 24 h
# human basophils = assay: IL-3 dependent IL-13 secretion by human basophils; assay type: cell-based; details: under the conditions tested
# human DCs = assay: Cytokine, chemokine and chemokine receptor expression in c-di-GMP-induced DC maturation (QPCR); assay type: cell-based
# Procedure: Buffy coats were obtained from healthy human volunteers and fractionated over Histopaque-1077. The peripheral blood mononuclear cells (PBMC) layer was recovered and erythrocyte-depleted by incubation in red blood cell lysis buffer for 5 minutes at room temperature. PBMCs were cultured in complete medium (RPMI 1640, 1% L-glutamine, 1% penicillin/streptomycin, and 10% low endotoxin FCS) for 2 hours in T75 flasks (Corning). Following incubation, nonadherent cells were removed by three washes with 1× PBS (Invitrogen, Carlsbad, Calif.). The remaining adherent cells were then cultured in complete medium supplemented with GM-CSF and IL-4 (50 ng/mL each). Human and murine IL-4 and GM-CSF were purchased from Peprotech (Rocky Hill, N.J.). On day 2 and day 4, the DC cultures received an additional dose of GM-CSF and IL-4 (50 ng/mL each). On day 5, non-adherent DC were harvested by gentle pipetting, counted, and plated in fresh medium containing GM-CSF and IL-4 (50 ng/mL each). On Day 6, some DC were matured by addition of 100 ng/ml LPS or 10-400 μM c-di-GMP for 1-24 hours.
# Surface expression of various markers was assessed using CellQuest analysis software on a FACScalibur (Becton-Dickinson) flow cytometer. Surface expression was determined using the following FITC- and PE-conjugated antibodies: CD86-FITC (Research Diagnostics), CCR7-PE (R&D Systems), CD80-FITC, CD83-FITC, HLA-DR-FITC (BD Pharmingen). The isotype control antibodies were used accordingly in all experiments and were purchased from Pharmingen. Human DC were incubated in 1% human AB serum/PBS and were incubated with rat anti-CD16/CD32 (BD Phamingen) to block non-specific binding. Total RNA was extracted using the RNeasy kit according to the manufacturer's protocol (Qiagen). Briefly, after DNase I (Invitrogen) treatment, 1 μg of total RNA from each sample was used as template for the reverse transcription reaction. 50 ul of cDNA was synthesized using Oligo(dT)15, random hexamers, and multiscribe reverse transcriptase (Applied Biosystems). All samples were reverse transcribed under the same conditions (25° C. for 10 minutes, 48° C. for 30 minutes) and from the same reverse transcription master mix in order to minimize differences in reverse transcription efficiency. All oligonucleotide primers for QPCR were designed using Primer Express software 1.0 (PE Biosystems) and synthesized by Invitrogen. The 25 ul QPCR reaction contains 2 ul of cDNA, 12.5 ul of 2× SYBR Green master mix (Stratagene), and […] of sense and anti-sense primer. The reaction conditions were as follows: 50° C. for 2 minutes, 95° C. for 10 minutes then 40 cycles of 95° C. for 15 seconds and 60° C. for 1 minute. Emitted fluorescence for each reaction was measured during the annealing/extension phase, and amplification plots were analyzed using the MX4000 software version 3.0 (Stratagene). Quantity values (i.e., copies) for gene expression were generated by comparison of the fluorescence generated by each sample with standard curves of known quantities. Next, the calculated number of copies was divided by the number of copies of the housekeeping gene GAPDH.
# [2] = test system: Primary hippocampal cells; assay: Staurosporine-induced cell death in primary hippocampal cultures (CellTiter 96 AQueous Assay); assay type: cell-based
# Procedure: To assess the role of cyclic dinucleotides in modulating the neurological response, i.e., prevent cell death induced by staurosporine (STS) in primary hippocampal nerve cells, the effects of c-di-GMP on hippocampal cells was analyzed. Primary hippocampal cells were prepared according to previously described methods (Pereira et al., 1993). Briefly, the hippocampi were dissected from the brain of 18-day-old fetal rats. Following enzymatic and mechanical dissociation, cells were plated at a density of 100,000 cells/well in 96-well plates pre-coated with matrigel. At the 7th day after plating, cultures were subjected to one of the following treatments: (i) vehicle (24 h), (ii) STS (100 nM, 22 h), (iii) c-di-GMP (24 h), (iv) c-di-GMP (2 h) followed by c-di-GMP -plus-STS (22 h), (v) c-di-GMP -plus-STS (24 h), or (vi) STS (2 h) followed by c-di-GMP -plus-STS (22 h). At the end of the treatments, cell viability was analyzed using CellTiter 96® AQueous Assay (Promega). The assay involves the spectrophotometric measurement (at 490 nm) of the mitochondrial conversion of a tetrazolium dye into a colorful product. The absorbance of the assay correlates with the number of metabolically active cells.
# [3] = test system: K. pneumoniae strain 43816, serotype 2; assay: Survival in murine Klebsiella pneumonia; assay type: in vivo
smiles,measurement,setting,value
"Nc1nc(=O)c2ncn([C@@H]3OC4COP(=O)(O)O[C@H]5[C@@H](O)[C@H](n6cnc7c(=O)nc(N)[nH]c76)O[C@@H]5COP(=O)(O)OC4C3O)c2[nH]1 (stereo partly drawn) [c-di-GMP, Bis(3′→5′)-cyclic diguanylic acid]","autologous T cell proliferation, increase compared to untreated DCs",[1]; FIG. 4A,five-fold
same,"heterologous T cell proliferation, increase compared to untreated DCs",[1]; FIG. 4B,two-fold
same,surface expression of co-stimulatory molecules CD80 and CD86,Murine splenic DCs; FIG. 9A,increase
same,TNF and IL-8 protein in supernatant,Murine splenic DCs; FIGS. 9B and 9C,increase
same,effect on IL-13 induced by IL-3,human basophils,essentially no inhibition
same,"mRNA expression of chemokines IL-8/CXCL8, MIG/CXCL9, IP-10/CXCL10, I-TAC/CXCL11, MCP-1/CCL2, MIP-1a/CCL3, MIP-1b/CCL4, RANTES/CCL5","human DCs; 200 uM, 1-24 hours",increased
same,"mRNA expression of IFN-a, IL-1b, TNF, IFN-g and IL-12 p40","human DCs; 200 uM, FIG. 11A",stimulated
same,IL-8 and IP-10 protein production (ELISA of supernatants),"human DCs; 24 hours, data not shown",consistent with the mRNA results
same,expression of CXCR4 and CCR7,human DCs; FIG. 11C,upregulated
same,expression of chemokine receptors CCR1 and CCR5,human DCs; FIG. 11C,downregulated
same,"induction of Th2 cytokines (IL-4, IL-5, IL-10, IL-13)",human DCs; human DCs,No evidence for the induction
same,time of TNF-a peak following treatment,human DCs; returns to basal level after 24 hours,3 h
same,number of metabolic active cells vs STS alone,[2]; 0.1-10 μM applied together with or after STS,on average higher
same,"STS-induced cell death, pre-treatment","[2]; 0.1-10 μM, 2 h before STS 100 nM, FIG. 5",prevented the STS-induced cell death
same,toxicity to primary hippocampal cultures,[2]; 24 h,not toxic
same,survival following i.t. Klebsiella challenge,"[3]; 200 nmoles i.n. 48 and 24 hrs prior, Balb/c mice, vehicle approx. 10%, p<0.05, FIG. 15",significantly increased
same,survival following i.t. Klebsiella challenge,"[3]; 200 nmoles s.q. 48 and 24 hrs prior, Balb/c mice, p<0.05, FIG. 15",significantly increased
same,survival following i.t. Klebsiella challenge,"[3]; given concomitantly and 6 hrs post K. pneumoniae, data not shown",no increase in survival
